Measured values taken from patent publication US20260184691A1, “INHIBITORS AND DEGRADERS OF PIP4K PROTEIN” (Larkspur Biosciences, Inc., priority 2022, published 2026).

Target: T1, endogenous PIP4K2C C-terminally tagged with HiBiT peptide in MOLT-4 cells (Homo sapiens, UniProt Q8TBX8)
T1 construct: to C-terminally tag endogenous PIP4K2C with HiBiT peptide; host or cells: MOLT-4 (CRISPR-Cas9 knock-in clone)
T1 sequence (Q8TBX8 1-421): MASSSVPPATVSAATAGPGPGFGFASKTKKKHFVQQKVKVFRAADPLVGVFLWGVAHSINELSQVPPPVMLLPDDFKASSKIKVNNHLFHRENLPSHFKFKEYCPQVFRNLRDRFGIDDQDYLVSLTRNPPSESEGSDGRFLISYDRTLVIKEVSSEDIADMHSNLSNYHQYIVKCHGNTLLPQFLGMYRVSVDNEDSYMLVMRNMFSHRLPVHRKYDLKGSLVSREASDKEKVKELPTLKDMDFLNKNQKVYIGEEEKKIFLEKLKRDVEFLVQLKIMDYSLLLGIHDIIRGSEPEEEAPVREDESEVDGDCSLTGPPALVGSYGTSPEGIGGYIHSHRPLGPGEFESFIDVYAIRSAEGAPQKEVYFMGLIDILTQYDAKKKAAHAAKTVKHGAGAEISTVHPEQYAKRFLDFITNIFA
Test: HiBiT PIP4K2C degradation assay in MOLT-4 cells
Format: cell-based
Conditions: 24 hours, 10-point dose response, top concentration 10 micromolar, read-out: HiBIT-degradation MOLT4 PIP4k2C 24 hours DC50
Procedure: Following clonal selection, genotype was confirmed by Sanger sequencing. […] Nano-Glo® HiBiT Lytic Assay System was purchased from Promega (Madison, WI, Catalog number N3030). Cell culture flasks and 384-well microplates were purchased from Corning (Glendale, AZ).
To study PIP4K2C degradation, 384-well plates were plated with a 10-point dose response curve, 3-fold dilution, in duplicate with a top starting concentration of 10 micromolar. Subsequently 22,500 cells were added to each well and incubated at 37C in 5% CO2 for 24 hours. At the end of the incubation time, cells were treated with the Nano-Glo® HiBiT Lytic Detection System following the manufacturer's instructions. Luminescence was measured with a PHERAstar FSX plate reader (BMG Labtech, Cary, NC). The Levenberg-Marquardt algorithm was used to fit a Hill equation to dose-response data to calculate DC50 values (see Table 6).

Row | Structure (SMILES) | DC50
1 | O=C1CCC(N2Cc3cc(NCCCCC(=O)N4CCC5(CC4)CCN(c4cncc(Nc6ncc(Cl)c(-c7cccc(-c8ccccc8)c7)n6)c4)C5=O)ccc3C2=O)C(=O)N1 (stereo not drawn) [Compound 84, 3-(5-((5-(2-(5-((4-([1,1′-biphenyl]-3-yl)-5-chloropyrimidin-2-yl)amino)pyridin-3-yl)-1-oxo-2,8-diazaspiro[4.5]decan-8-yl)-5-oxopentyl)amino)-1-oxoisoindolin-2-yl)piperidine-2,6-dione] | < 500 nM
2 | O=C1CCC(Nc2ccc(N3CCC(CN4CCC(C(=O)Nc5cncc(Nc6ncc(Cl)c(-c7cccc(-c8ccccc8)c7)n6)c5)CC4)CC3)cc2)C(=O)N1 (stereo not drawn) [Compound 187, N-(5-((4-([1,1′-biphenyl]-3-yl)-5-chloropyrimidin-2-yl)amino)pyridin-3-yl)-1-((1-(4-((2,6-dioxopiperidin-3-yl)amino)phenyl)piperidin-4-yl)methyl)piperidine-4-carboxamide] | < 500 nM
3 | O=C(COc1ccc2c3c(cccc13)C(=O)N2C1CCC(=O)NC1=O)NCCCCCCCCCC(=O)Nc1cncc(Nc2ncc(Cl)c(-c3cccc(-c4ccccc4)c3)n2)c1 (stereo not drawn) [Compound 167, N-(5-((4-([1,1′-biphenyl]-3-yl)-5-chloropyrimidin-2-yl)amino)pyridin-3-yl)-10-(2-((1-(2,6-dioxopiperidin-3-yl)-2-oxo-1,2-dihydrobenzo[cd]indol-6-yl)oxy)acetamido)decanamide] | < 500 nM
4 | O=C1CCC(N2Cc3c(OCCCCCCCCCC(=O)N4CCC5(CC4)CCN(c4cncc(Nc6ncc(Cl)c(-c7cccc(-c8ccccc8)c7)n6)c4)C5=O)cccc3C2=O)C(=O)N1 (stereo not drawn) [Compound 69, 3-(4-((10-(2-(5-((4-([1,1′-biphenyl]-3-yl)-5-chloropyrimidin-2-yl)amino)pyridin-3-yl)-1-oxo-2,8-diazaspiro[4.5]decan-8-yl)-10-oxodecyl)oxy)-1-oxoisoindolin-2-yl)piperidine-2,6-dione] | < 500 nM
5 | O=C1CCC(N2Cc3c(OCCCCCCCCC(=O)N4CCC5(CC4)CCN(c4cncc(Nc6ncc(Cl)c(-c7cccc(-c8ccccc8)c7)n6)c4)C5=O)cccc3C2=O)C(=O)N1 (stereo not drawn) [Compound 71, 3-(4-((9-(2-(5-((4-([1,1′-biphenyl]-3-yl)-5-chloropyrimidin-2-yl)amino)pyridin-3-yl)-1-oxo-2,8-diazaspiro[4.5]decan-8-yl)-9oxononyl)oxy)-1-oxoisoindolin-2-yl)piperidine-2,6-dione] | < 500 nM
6 | O=C1CCC(Nc2ccc(C3CCN(CC(=O)N4CCC5(CC4)CCN(c4cncc(Nc6ncc(Cl)c(N7CCC[C@@H](C(F)(F)F)C7)n6)c4)C5=O)CC3)cc2)C(=O)N1 (stereo partly drawn) [Compound 171, 3-((4-(1-(2-(2-(5-((5-chloro-4-((R)-3-(trifluoromethyl)piperidin-1-yl)pyrimidin-2-yl)amino)pyridin-3-yl)-1-oxo-2,8-diazaspiro[4.5]decan-8-yl)-2-oxoethyl)piperidin-4-yl)phenyl)amino)piperidine-2,6-dione] | < 500 nM
7 | O=C1CCC(N2Cc3cc(OCCCCCCC(=O)N4CCC5(CC4)CC(=O)N(c4cncc(Nc6ncc(Cl)c(-c7cccc(-c8ccccc8)c7)n6)c4)C5)ccc3C2=O)C(=O)N1 (stereo not drawn) [Compound 166, 3-(5-((7-(2-(5-((4-([1,1′-biphenyl]-3-yl)-5-chloropyrimidin-2-yl)amino)pyridin-3-yl)-3-oxo-2,8-diazaspiro[4.5]decan-8-yl)-7-oxoheptyl)oxy)-1-oxoisoindolin-2-yl)piperidine-2,6-dione] | < 500 nM
8 | O=C1CCC(N2Cc3cc(C4CCN(CC(=O)N5CCC6(CC5)CCN(c5cncc(Nc7ncc(Cl)c(-c8cccc(C9CC9)c8)n7)c5)C6=O)CC4)ccc3C2=O)C(=O)N1 (stereo not drawn) [Compound 207, 3-(5-(1-(2-(2-(5-((5-chloro-4-(3-cyclopropylphenyl)pyrimidin-2-yl)amino)pyridin-3-yl)-1-oxo-2,8-diazaspiro[4.5]decan-8-yl)-2-oxoethyl)piperidin-4-yl)-1-oxoisoindolin-2-yl)piperidine-2,6-dione] | < 500 nM
9 | O=C(CCCOc1cccc2c1C(=O)N(C1CCC(=O)NC1=O)C2=O)NCCCCCCCC(=O)Nc1cncc(Nc2ncc(Cl)c(-c3cccc(-c4ccccc4)c3)n2)c1 (stereo not drawn) [Compound 81, N-(5-((4-([1,1′-biphenyl]-3-yl)-5-chloropyrimidin-2-yl)amino)pyridin-3-yl)-8-(4-((2-(2,6-dioxopiperidin-3-yl)-1,3-dioxoisoindolin-4-yl)oxy)butanamido)octanamide] | < 500 nM
10 | Cn1c(=O)n(C2CCC(=O)NC2=O)c2cc(OCC(=O)NCCCCCCCCCC(=O)Nc3cncc(Nc4ncc(Cl)c(-c5cccc(-c6ccccc6)c5)n4)c3)ccc21 (stereo not drawn) [Compound 51, N-(5-((4-([1,1′-biphenyl]-3-yl)-5-chloropyrimidin-2-yl)amino)pyridin-3-yl)-10-(2-((3-(2,6-dioxopiperidin-3-yl)-1-methyl-2-oxo-2,3-dihydro-1H-benzo[d]imidazol-5-yl)oxy)acetamido)decanamide] | 1000 to 5000 nM
11 | O=C1CCC(N2Cc3cc(OCCCCCCCCCCN4CCC5(CC4)CCN(c4cncc(Nc6ncc(Cl)c(-c7cccc(-c8ccccc8)c7)n6)c4)C5=O)ccc3C2=O)C(=O)N1 (stereo not drawn) [Compound 52, 3-(5-((10-(2-(5-((4-([1,1′-biphenyl]-3-yl)-5-chloropyrimidin-2-yl)amino)pyridin-3-yl)-1-oxo-2,8-diazaspiro[4.5]decan-8-yl)decyl)oxy)-1-oxoisoindolin-2-yl)piperidine-2,6-dione] | 500 to 1000 nM
12 | O=C(COc1cccc2c1CN(C1CCC(=O)NC1=O)C2=O)NCCCCCCCCCC(=O)Nc1cncc(Nc2ncc(Cl)c(-c3cccc(-c4ccccc4)c3)n2)c1 (stereo not drawn) [Compound 66, N-(5-((4-([1,1′-biphenyl]-3-yl)-5-chloropyrimidin-2-yl)amino)pyridin-3-yl)-10-(2-((2-(2,6-dioxopiperidin-3-yl)-1-oxoisoindolin-4-yl)oxy)acetamido)decanamide] | < 500 nM

Now from value to molecule:

Row | DC50 | Structure (SMILES)
13 | 500 to 1000 nM | O=C1CCC(Nc2ccc(N3CCC(CC(=O)N4CCC5(CC4)CCN(c4cncc(Nc6ncc(Cl)c(-c7cccc(C8CCCCC8)c7)n6)c4)C5=O)CC3)cc2)C(=O)N1 (stereo not drawn) [Compound 189, 3-((4-(4-(2-(2-(5-((5-chloro-4-(3-cyclohexylphenyl)pyrimidin-2-yl)amino)pyridin-3-yl)-1-oxo-2,8-diazaspiro[4.5]decan-8-yl)-2-oxoethyl)piperidin-1-yl)phenyl)amino)piperidine-2,6-dione]
14 | < 500 nM | O=C1CCC(Nc2ccc(C3CCN(CC(=O)N4CCC5(CC4)CCN(c4cncc(Nc6ncc(Cl)c(N7CCC[C@@H](O)C7)n6)c4)C5=O)CC3)cc2)C(=O)N1 (stereo partly drawn) [Compound 170, 3-((4-(1-(2-(2-(5-((5-chloro-4-((R)-3-hydroxypiperidin-1-yl)pyrimidin-2-yl)amino)pyridin-3-yl)-1-oxo-2,8-diazaspiro[4.5]decan-8-yl)-2-oxoethyl)piperidin-4-yl)phenyl)amino)piperidine-2,6-dione]
15 | < 500 nM | O=C1CCC(Nc2ccc(N3CCC(CC(=O)N4CCC5(CC4)CCN(c4cncc(Nc6ncc(Cl)c(N7CCCCC7)n6)c4)C5=O)CC3)cc2)C(=O)N1 (stereo not drawn) [Compound 168, 3-((4-(4-(2-(2-(5-((5-chloro-4-(piperidin-1-yl)pyrimidin-2-yl)amino)pyridin-3-yl)-1-oxo-2,8-diazaspiro[4.5]decan-8-yl)-2-oxoethyl)piperidin-1-yl)phenyl)amino)piperidine-2,6-dione]
16 | < 500 nM | O=C1CCC(Nc2ccc(C3CCN(C(=O)CN4CCC5(CC4)CCN(c4cncc(Nc6ncc(Cl)c(-c7cccc(C8CC8)c7)n6)c4)C5=O)CC3)cc2)C(=O)N1 (stereo not drawn) [Compound 200, 3-((4-(1-(2-(2-(5-((5-chloro-4-(3-cyclopropylphenyl)pyrimidin-2-yl)amino)pyridin-3-yl)-1-oxo-2,8-diazaspiro[4.5]decan-8-yl)acetyl)piperidin-4-yl)phenyl)amino)piperidine-2,6-dione]
17 | < 500 nM | O=C1CCC(Nc2ccc(N3CCC(CC(=O)N4CCC5(CC4)CCN(c4cncc(Nc6ncc(Cl)c(N7CCC[C@@H](O)C7)n6)c4)C5=O)CC3)cc2)C(=O)N1 (stereo partly drawn) [Compound 176, 3-((4-(4-(2-(2-(5-((5-chloro-4-((R)-3-hydroxypiperidin-1-yl)pyrimidin-2-yl)amino)pyridin-3-yl)-1-oxo-2,8-diazaspiro[4.5]decan-8-yl)-2-oxoethyl)piperidin-1-yl)phenyl)amino)piperidine-2,6-dione]
18 | < 500 nM | O=C1CCC(Nc2ccc(N3CCC(CC(=O)N4CCC5(CC4)CCN(c4cncc(Nc6ncc(Cl)c(-c7cccc(N8CCCCC8)c7)n6)c4)C5=O)CC3)cc2)C(=O)N1 (stereo not drawn) [Compound 182, 3-((4-(4-(2-(2-(5-((5-chloro-4-(3-(piperidin-1-yl)phenyl)pyrimidin-2-yl)amino)pyridin-3-yl)-1-oxo-2,8-diazaspiro[4.5]decan-8-yl)-2-oxoethyl)piperidin-1-yl)phenyl)amino)piperidine-2,6-dione]
